Positions of bridges follow the written chain, without caps; N, C: chain ends. Residues, ends and D or L forms follow the SMILES beside them.
target: hNav1.7 (Homo sapiens, UniProt Q15858); assay: cell-based; conditions: Nav1.7 Use IC50
Sequence (Q15858 whole entry, looked up): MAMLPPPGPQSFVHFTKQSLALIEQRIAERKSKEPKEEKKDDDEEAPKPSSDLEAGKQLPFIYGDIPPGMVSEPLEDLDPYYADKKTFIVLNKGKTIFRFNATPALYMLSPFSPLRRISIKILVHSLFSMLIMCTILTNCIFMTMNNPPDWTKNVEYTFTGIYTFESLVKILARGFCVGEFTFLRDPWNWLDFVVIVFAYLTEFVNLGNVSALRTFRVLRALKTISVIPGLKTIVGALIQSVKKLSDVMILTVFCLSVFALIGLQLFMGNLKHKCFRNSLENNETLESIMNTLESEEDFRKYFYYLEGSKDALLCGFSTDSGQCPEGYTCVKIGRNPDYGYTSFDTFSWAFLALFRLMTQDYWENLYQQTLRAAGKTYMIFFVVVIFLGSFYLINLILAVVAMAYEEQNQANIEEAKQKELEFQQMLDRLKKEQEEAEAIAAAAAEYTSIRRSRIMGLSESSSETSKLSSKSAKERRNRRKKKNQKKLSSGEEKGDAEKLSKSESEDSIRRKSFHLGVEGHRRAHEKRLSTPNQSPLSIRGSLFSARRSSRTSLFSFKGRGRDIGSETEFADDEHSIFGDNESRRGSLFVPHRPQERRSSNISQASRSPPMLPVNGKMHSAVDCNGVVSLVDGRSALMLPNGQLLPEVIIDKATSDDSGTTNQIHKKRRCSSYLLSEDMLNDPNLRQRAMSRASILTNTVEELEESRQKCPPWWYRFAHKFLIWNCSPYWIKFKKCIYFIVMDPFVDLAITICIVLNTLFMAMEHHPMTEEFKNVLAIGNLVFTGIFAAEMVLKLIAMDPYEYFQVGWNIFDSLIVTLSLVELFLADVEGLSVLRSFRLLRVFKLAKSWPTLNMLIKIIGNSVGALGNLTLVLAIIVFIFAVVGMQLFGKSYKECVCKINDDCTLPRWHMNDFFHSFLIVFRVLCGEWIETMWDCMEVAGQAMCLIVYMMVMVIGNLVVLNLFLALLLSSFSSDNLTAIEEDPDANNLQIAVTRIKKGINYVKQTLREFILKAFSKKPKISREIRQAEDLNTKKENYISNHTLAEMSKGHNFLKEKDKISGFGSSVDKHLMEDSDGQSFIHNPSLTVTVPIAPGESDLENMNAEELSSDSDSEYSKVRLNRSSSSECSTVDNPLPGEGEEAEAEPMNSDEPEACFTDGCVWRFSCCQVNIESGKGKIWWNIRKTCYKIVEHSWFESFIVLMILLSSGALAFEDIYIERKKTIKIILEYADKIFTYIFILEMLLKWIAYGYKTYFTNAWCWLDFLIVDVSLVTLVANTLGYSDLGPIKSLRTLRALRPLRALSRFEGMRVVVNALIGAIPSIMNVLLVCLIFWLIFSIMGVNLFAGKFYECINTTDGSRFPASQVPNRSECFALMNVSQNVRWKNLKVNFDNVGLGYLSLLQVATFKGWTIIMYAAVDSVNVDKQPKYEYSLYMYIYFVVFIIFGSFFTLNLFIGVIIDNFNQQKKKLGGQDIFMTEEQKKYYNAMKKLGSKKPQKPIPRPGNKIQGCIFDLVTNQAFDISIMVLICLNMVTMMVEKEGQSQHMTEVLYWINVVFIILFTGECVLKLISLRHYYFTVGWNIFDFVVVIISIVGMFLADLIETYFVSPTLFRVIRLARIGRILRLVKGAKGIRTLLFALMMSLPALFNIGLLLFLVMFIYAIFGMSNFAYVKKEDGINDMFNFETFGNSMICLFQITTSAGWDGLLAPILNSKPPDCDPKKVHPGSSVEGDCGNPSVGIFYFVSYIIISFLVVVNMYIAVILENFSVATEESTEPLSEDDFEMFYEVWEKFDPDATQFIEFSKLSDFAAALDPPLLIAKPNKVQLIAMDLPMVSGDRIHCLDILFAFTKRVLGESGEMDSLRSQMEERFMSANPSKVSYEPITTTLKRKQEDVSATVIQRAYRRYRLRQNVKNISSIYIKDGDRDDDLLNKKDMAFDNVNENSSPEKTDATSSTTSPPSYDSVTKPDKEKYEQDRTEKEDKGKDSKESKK

SMILES	IC50
CC[C@H](C)[C@@H]1NC(=O)[C@@H]2CSSC[C@@H]3NC(=O)[C@H](C(C)C)NC(=O)[C@H](CC(C)C)NC(=O)[C@H](CC(N)=O)NC(=O)[C@@H]4CCCN4C(=O)[C@H](CCCNC(=N)N)NC(=O)[C@H](CSSC[C@H](NC(=O)[C@@H](N)CC(=O)O)C(=O)N[C@@H](CC(C)C)C(=O)NCC(=O)N[C@@H](C4CCCCC4)C(=O)N[C@@H](CCSC)C(=O)N[C@@H](CCCNC(=N)N)C(=O)N[C@@H](CCCCN)C(=O)N2)NC(=O)[C@H](CSSC[C@@H](C(=O)N[C@@H](CCCCN)C(=O)N[C@@H](Cc2ccc(O)cc2)C(=O)N[C@H](C(=O)N[C@@H](Cc2ccccc2)C(N)=O)C(C)C)NC(=O)[C@H](Cc2c[nH]c4ccccc24)NC(=O)[C@H](CCCCN)NC(=O)[C@H](Cc2cnc[nH]2)NC(=O)[C@H]([C@@H](C)O)NC(=O)[C@H](CCCNC(=N)N)NC(=O)[C@H](CO)NC3=O)NC(=O)[C@H](CCCCN)NC(=O)[C@H](CC(=O)O)NC(=O)[C@H](CC(N)=O)NC(=O)[C@H](CC(=O)O)NC(=O)[C@@H]2CCCN2C1=O [[Chg5]GpTx-1(1-34)]	7 nM
CCC[C@@H]1NC(=O)CNC(=O)[C@H](CC(C)C)NC(=O)[C@@H](NC(=O)[C@@H](N)CC(=O)O)CSSC[C@@H]2NC(=O)[C@@H]3CSSC[C@@H](C(=O)N[C@@H](CCCCN)C(=O)N[C@@H](Cc4ccc(O)cc4)C(=O)N[C@H](C(=O)N[C@@H](Cc4ccccc4)C(N)=O)C(C)C)NC(=O)[C@H](Cc4c[nH]c5ccccc45)NC(=O)[C@H](CCCCN)NC(=O)[C@H](Cc4cnc[nH]4)NC(=O)[C@H]([C@@H](C)O)NC(=O)[C@H](CCCNC(=N)N)NC(=O)[C@H](CO)NC(=O)[C@H](CSSC[C@H](NC(=O)[C@H](CCCCN)NC(=O)[C@H](CCCNC(=N)N)NC(=O)[C@H](CCSC)NC1=O)C(=O)N[C@@H]([C@@H](C)CC)C(=O)N1CCC[C@H]1C(=O)N[C@@H](CC(=O)O)C(=O)N[C@@H](CC(N)=O)C(=O)N[C@@H](CC(=O)O)C(=O)N[C@@H](CCCCN)C(=O)N3)NC(=O)[C@H](C(C)C)NC(=O)[C@H](CC(C)C)NC(=O)[C@H](CC(N)=O)NC(=O)[C@@H]1CCCN1C(=O)[C@H](CCCNC(=N)N)NC2=O [[Nva5]GpTx-1(1-34)]	38 nM
CC[C@H](C)[C@@H]1NC(=O)[C@@H]2CSSC[C@@H]3NC(=O)[C@H](C(C)C)NC(=O)[C@H](CC(C)C)NC(=O)[C@H](CC(N)=O)NC(=O)[C@@H]4CCCN4C(=O)[C@H](CCCNC(=N)N)NC(=O)[C@H](CSSC[C@H](NC(=O)[C@@H](N)CC(=O)O)C(=O)N[C@@H](CC(C)C)C(=O)NCC(=O)N[C@@H](Cc4ccccc4)C(=O)N[C@@H](CCSC)C(=O)N[C@@H](CCCNC(=N)N)C(=O)N[C@@H](CCCCN)C(=O)N2)NC(=O)[C@H](CSSC[C@@H](C(=O)N[C@@H](CCCCN)C(=O)N[C@@H](Cc2ccc(O)cc2)C(=O)N[C@H](C(=O)N[C@@H](Cc2ccccc2)C(N)=O)C(C)C)NC(=O)[C@H](Cc2c[nH]c4ccccc24)NC(=O)[C@H](CC(=O)O)NC(=O)[C@H](Cc2cnc[nH]2)NC(=O)[C@H]([C@@H](C)O)NC(=O)[C@H](CCCNC(=N)N)NC(=O)[C@H](CO)NC3=O)NC(=O)[C@H](CCCCN)NC(=O)[C@H](CC(=O)O)NC(=O)[C@H](CC(N)=O)NC(=O)[C@H](CC(=O)O)NC(=O)[C@@H]2CCCN2C1=O [[Asp28]GpTx-1(1-34)] (H-DCLGFMRKCIPDNDKCCRPNLVCSRTHDWCKYVF-NH2; disulfide 2-17, 9-23, 16-30)	15 nM
CC[C@H](C)[C@@H]1NC(=O)[C@@H]2CSSC[C@@H]3NC(=O)[C@H](C(C)C)NC(=O)[C@H](CC(C)C)NC(=O)[C@H](CC(N)=O)NC(=O)[C@@H]4CCCN4C(=O)[C@H](CCCNC(=N)N)NC(=O)[C@H](CSSC[C@H](NC(=O)[C@@H](N)CC(=O)O)C(=O)N[C@@H](CC(C)C)C(=O)NCC(=O)N[C@@H](Cc4ccccc4)C(=O)N[C@@H](CCSC)C(=O)N[C@@H](CCCNC(=N)N)C(=O)N[C@@H](CCCCN)C(=O)N2)NC(=O)[C@H](CSSC[C@@H](C(=O)N[C@@H](CCCCN)C(=O)N[C@@H](Cc2ccc(O)cc2)C(=O)N[C@H](C(=O)N[C@@H](Cc2ccccc2)C(N)=O)C(C)C)NC(=O)[C@H](Cc2c[nH]c4ccccc24)NC(=O)[C@H](CCCCN)NC(=O)[C@H](Cc2cnc[nH]2)NC(=O)[C@H]([C@@H](C)O)NC(=O)[C@H](CCCNC(=N)N)NC(=O)[C@H](CO)NC3=O)NC(=O)[C@H](CCCCN)NC(=O)[C@H](CC(=O)O)NC(=O)[C@H](CC(N)=O)NC(=O)[C@H](CC(=O)O)NC(=O)[C@H](CCC(=O)O)NC1=O [[Glu11]GpTx-1(1-34)] (H-DCLGFMRKCIEDNDKCCRPNLVCSRTHKWCKYVF-NH2; disulfide 2-17, 9-23, 16-30)	2 nM
CC[C@@H]1NC(=O)CNC(=O)[C@H](CC(C)C)NC(=O)[C@@H](NC(=O)[C@@H](N)CC(=O)O)CSSC[C@@H]2NC(=O)[C@@H]3CSSC[C@@H](C(=O)N[C@@H](CCCCN)C(=O)N[C@@H](Cc4ccc(O)cc4)C(=O)N[C@H](C(=O)N[C@@H](Cc4ccccc4)C(N)=O)C(C)C)NC(=O)[C@H](Cc4c[nH]c5ccccc45)NC(=O)[C@H](CCCCN)NC(=O)[C@H](Cc4cnc[nH]4)NC(=O)[C@H]([C@@H](C)O)NC(=O)[C@H](CCCNC(=N)N)NC(=O)[C@H](CO)NC(=O)[C@H](CSSC[C@H](NC(=O)[C@H](CCCCN)NC(=O)[C@H](CCCNC(=N)N)NC(=O)[C@H](CCSC)NC1=O)C(=O)N[C@@H]([C@@H](C)CC)C(=O)N1CCC[C@H]1C(=O)N[C@@H](CC(=O)O)C(=O)N[C@@H](CC(N)=O)C(=O)N[C@@H](CC(=O)O)C(=O)N[C@@H](CCCCN)C(=O)N3)NC(=O)[C@H](C(C)C)NC(=O)[C@H](CC(C)C)NC(=O)[C@H](CC(N)=O)NC(=O)[C@@H]1CCCN1C(=O)[C@H](CCCNC(=N)N)NC2=O [[2-Abu5]GpTx-1(1-34)]	83 nM
CSCC[C@@H]1NC(=O)[C@H](Cc2ccccc2)NC(=O)CNC(=O)[C@H](CC(C)C)NC(=O)[C@@H](NC(=O)[C@@H](N)CC(=O)O)CSSC[C@@H]2NC(=O)[C@@H]3CSSC[C@@H](C(=O)N[C@@H](CCCCN)C(=O)N[C@@H](Cc4ccc(O)cc4)C(=O)N[C@H](C(=O)N[C@@H](Cc4ccccc4)C(N)=O)C(C)C)NC(=O)[C@H](Cc4c[nH]c5ccccc45)NC(=O)[C@H](CCCCN)NC(=O)[C@H](Cc4cnc[nH]4)NC(=O)[C@H]([C@@H](C)O)NC(=O)[C@H](CCCNC(=N)N)NC(=O)[C@H](CO)NC(=O)[C@H](CSSC[C@H](NC(=O)[C@H](CCCCN)NC(=O)[C@H](CCCNC(=N)N)NC1=O)C(=O)N[C@@H](CC(N)=O)C(=O)N1CCC[C@H]1C(=O)N[C@@H](CC(=O)O)C(=O)N[C@@H](CC(N)=O)C(=O)N[C@@H](CC(=O)O)C(=O)N[C@@H](CCCCN)C(=O)N3)NC(=O)[C@H](C(C)C)NC(=O)[C@H](CC(C)C)NC(=O)[C@H](CC(N)=O)NC(=O)[C@@H]1CCCN1C(=O)[C@H](CCCNC(=N)N)NC2=O [[Asn10]GpTx-1(1-34)] (H-DCLGFMRKCNPDNDKCCRPNLVCSRTHKWCKYVF-NH2; disulfide 2-17, 9-23, 16-30)	2 nM
CSCC[C@@H]1NC(=O)[C@H](Cc2ccccc2)NC(=O)CNC(=O)[C@H](CC(C)C)NC(=O)[C@@H](NC(=O)[C@@H](N)CC(=O)O)CSSC[C@@H]2NC(=O)[C@@H]3CSSC[C@@H](C(=O)N[C@@H](CCCCN)C(=O)N[C@@H](Cc4ccc(O)cc4)C(=O)N[C@H](C(=O)N[C@@H](Cc4ccccc4)C(N)=O)C(C)C)NC(=O)[C@H](Cc4c[nH]c5ccccc45)NC(=O)[C@H](CCCCN)NC(=O)[C@H](Cc4cnc[nH]4)NC(=O)[C@H]([C@@H](C)O)NC(=O)[C@H](CCCNC(=N)N)NC(=O)[C@H](CO)NC(=O)[C@H](CSSC[C@H](NC(=O)[C@H](CCCCN)NC(=O)[C@H](CCCNC(=N)N)NC1=O)C(=O)N[C@@H](CCC(=O)O)C(=O)N1CCC[C@H]1C(=O)N[C@@H](CC(=O)O)C(=O)N[C@@H](CC(N)=O)C(=O)N[C@@H](CC(=O)O)C(=O)N[C@@H](CCCCN)C(=O)N3)NC(=O)[C@H](C(C)C)NC(=O)[C@H](CC(C)C)NC(=O)[C@H](CC(N)=O)NC(=O)[C@@H]1CCCN1C(=O)[C@H](CCCNC(=N)N)NC2=O [[Glu10]GpTx-1(1-34)] (H-DCLGFMRKCEPDNDKCCRPNLVCSRTHKWCKYVF-NH2; disulfide 2-17, 9-23, 16-30)	2 nM

same assay, conditions: read-out: Nav1.7 Use IC50

SMILES	IC50
CC[C@H](C)[C@@H]1NC(=O)[C@@H]2CSSC[C@@H]3NC(=O)[C@H](C(C)C)NC(=O)[C@H](CC(C)C)NC(=O)[C@H](CC(N)=O)NC(=O)[C@@H]4CCCN4C(=O)[C@H](CCCNC(=N)N)NC(=O)[C@H](CSSC[C@H](NC(=O)[C@@H](N)CC(=O)O)C(=O)N[C@@H](CC(C)C)C(=O)N[C@@H](CCCNC(=N)N)C(=O)N[C@@H](Cc4ccccc4)C(=O)N[C@@H](CCSC)C(=O)N[C@@H](CCCNC(=N)N)C(=O)N[C@@H](CCCCN)C(=O)N2)NC(=O)[C@H](CSSC[C@@H](C(=O)N[C@@H](CCCCN)C(=O)N[C@@H](Cc2ccc(O)cc2)C(=O)N[C@H](C(=O)N[C@@H](Cc2ccccc2)C(N)=O)C(C)C)NC(=O)[C@H](Cc2c[nH]c4ccccc24)NC(=O)[C@H](CCCCN)NC(=O)[C@H](Cc2c[nH]cn2)NC(=O)[C@H]([C@@H](C)O)NC(=O)[C@H](CCCNC(=N)N)NC(=O)[C@H](CO)NC3=O)NC(=O)[C@H](CCCCN)NC(=O)[C@H](CC(=O)O)NC(=O)[C@H](CC(N)=O)NC(=O)[C@H](CC(=O)O)NC(=O)[C@@H]2CCCN2C1=O [SEQ ID NO: 63] (H-DCLRFMRKCIPDNDKCCRPNLVCSRTHKWCKYVF-NH2; disulfide 2-17, 9-23, 16-30)	3 nM
CCCC[C@@H]1NC(=O)[C@H](C)NC(=O)CNC(=O)[C@H](CC(C)C)NC(=O)[C@@H](NC(=O)[C@@H](N)CC(=O)O)CSSC[C@@H]2NC(=O)[C@@H]3CSSC[C@@H](C(=O)N[C@@H](CCCCN)C(=O)N[C@@H](Cc4ccc(O)cc4)C(=O)N[C@H](C(=O)N[C@@H](Cc4ccccc4)C(N)=O)C(C)C)NC(=O)[C@H](Cc4c[nH]c5ccccc45)NC(=O)[C@H](CCCCN)NC(=O)[C@H](Cc4c[nH]cn4)NC(=O)[C@H]([C@@H](C)O)NC(=O)[C@H](CCCNC(=N)N)NC(=O)[C@H](CO)NC(=O)[C@H](CSSC[C@H](NC(=O)[C@H](CCCCN)NC(=O)[C@H](CCCNC(=N)N)NC1=O)C(=O)N[C@@H]([C@@H](C)CC)C(=O)N1CCC[C@H]1C(=O)N[C@@H](CC(=O)O)C(=O)N[C@@H](CC(N)=O)C(=O)N[C@@H](CC(=O)O)C(=O)N[C@@H](CCCCN)C(=O)N3)NC(=O)[C@H](C(C)C)NC(=O)[C@H](CC(C)C)NC(=O)[C@H](CC(N)=O)NC(=O)[C@@H]1CCCN1C(=O)[C@H](CCCNC(=N)N)NC2=O [[Ala5;Nle6]GpTx-1(1-34)]	10 nM
